Laboratory results taken from patent US7893266B2, “Detection of cancer cells in vitro using sigma-2 receptor ligands as radiotracers” (Washington University, priority 2003, dated 2011).
Read-outs that look alike come from different tables or passages of the source.

Legend:
EMT-6 mammary tumors [1] = test: Biodistribution in EMT-6 BALB/C mice; type: in vivo
Procedure: (§1) As used herein, the term “tumor:background ratio” (i.e., tumor:fat ratio, tumor:muscle ratio, tumor:lung ratio, tumor:blood ratio) refers to the % injected dose/g tissue of the radiotracer in the tumor divided by the % injected dose/g […] in the background tissue (i.e., fat, muscle, lung, blood).
(§2) B. Biodistribution Studies of ^11C analogs in Tumor-Bearing Mice. Biodistribution studies were conducted in mature Balb/c mice that were implanted with EMT-6 mammary tumors identified herein as EMT-6 BALB/C mice to create laboratory tumor-bearing mice. The mice were implanted in the scapular region seven days prior to the study. Animals were injected with 100-150 μCi of the ^11C-labeled radiotracer and the animals were sacrificed at 5, 30, and 60 min post-i.v. injection of the radiotracer.
(§3) A series of biodistribution studies in tumor-bearing mice were also conducted with [^76Br]8, [^76Br]6, [^125I]8i, and [^125I]6i.

[2] = biological target: T1, σ2 receptors in the breast tumors (Mus musculus, UniProt Q8VD00); test: In vivo blocking studies with YUN 143 in tumor-bearing mice; conditions: blocking agent YUN 143 (1 mg/kg, i.v.); time point of highest % I.D./gram tumor
T1 construct: mature Balb/c mice that were implanted with EMT-6 mammary tumors; from tissue; host or cells: EMT-6 mammary tumours in Balb/c mice, in vivo
T1 sequence (Q8VD00 1-176): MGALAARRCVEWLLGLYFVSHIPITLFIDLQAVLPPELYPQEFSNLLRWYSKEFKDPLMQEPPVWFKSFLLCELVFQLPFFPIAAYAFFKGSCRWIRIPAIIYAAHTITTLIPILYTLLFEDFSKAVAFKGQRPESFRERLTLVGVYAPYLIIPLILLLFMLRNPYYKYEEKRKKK
Text: The blocking agent was YUN 143, which has a high affinity for σ1 and σ2 receptors. Animals were sacrificed at the time point displaying the highest % I.D./gram tumor.
The inventors then conducted blocking studies in order to confirm that the radiotracer labeled σ2 receptors in the breast tumors. […] We have previously reported that [^18F]YUN 143 labels σ1 and σ2 receptors in breast tumor xenografts (Mach et al., 2001).

EMT-6 mammary tumors [3] = test: Comparison with [18F]FLT in tumor-bearing mice; type: in vivo; conditions: 1 hr for [11C]10; 2 hr post-i.v. injection for [76Br]6 and [125I]6i
[4] = Biodistribution in EMT-6 BALB/C mice; type: in vivo; conditions: Balb/c, mouse, intravenous
Procedure: as §1, §2, §3

[5] = kidney, read-out: % ID per gram kidney
[6] = liver, read-out: % ID per gram liver

SMILES: COc1cc2c(cc1OC)CN(CCCCNC(=O)c1cc(C)cc(OC)c1O[11CH3])CC2 [[^11C]10]
- ratio Tumor:blood (EMT-6 mammary tumors [1]; 5 min): 1.37 ± 0.33
- ratio Tumor:fat (EMT-6 mammary tumors [1]; 5 min): 2.28 ± 0.32
- ratio Tumor:heart (EMT-6 mammary tumors [1]; 5 min): 0.71 ± 0.12
- ratio Tumor:lung (EMT-6 mammary tumors [1]; 5 min): 0.31 ± 0.11
- ratio Tumor:muscle (EMT-6 mammary tumors [1]; 5 min): 0.93 ± 0.13
- ratio Tumor:blood (EMT-6 mammary tumors [1]; 30 min): 1.80 ± 0.26
- ratio Tumor:fat (EMT-6 mammary tumors [1]; 30 min): 3.68 ± 1.14
- ratio Tumor:heart (EMT-6 mammary tumors [1]; 30 min): 2.53 ± 0.55
- ratio Tumor:lung (EMT-6 mammary tumors [1]; 30 min): 1.06 ± 0.24
- ratio Tumor:muscle (EMT-6 mammary tumors [1]; 30 min): 3.18 ± 0.51
- ratio Tumor:blood (EMT-6 mammary tumors [1]; 1 hour): 1.81 ± 0.11
- ratio Tumor:fat (EMT-6 mammary tumors [1]; 1 hour): 5.36 ± 2.38
- ratio Tumor:heart (EMT-6 mammary tumors [1]; 1 hour): 2.78 ± 0.79
- ratio Tumor:lung (EMT-6 mammary tumors [1]; 1 hour): 1.28 ± 0.41
- ratio Tumor:muscle (EMT-6 mammary tumors [1]; 1 hour): 2.78 ± 0.62
- % ID per gram blood (EMT-6 mammary tumors [1]; 5 min): 3.09 ± 0.33 % ID per gram
- % ID per gram blood (EMT-6 mammary tumors [1]; 30 min): 1.31 ± 0.11 % ID per gram
- % ID per gram blood (EMT-6 mammary tumors [1]; 1 hour): 0.73 ± 0.05 % ID per gram
- % ID per gram brain (EMT-6 mammary tumors [1]; 5 min): 2.29 ± 0.28 % ID per gram
- % ID per gram brain (EMT-6 mammary tumors [1]; 30 min): 0.28 ± 0.03 % ID per gram
- % ID per gram brain (EMT-6 mammary tumors [1]; 1 hour): 0.15 ± 0.01 % ID per gram
- % ID per gram fat (EMT-6 mammary tumors [1]; 5 min): 1.88 ± 0.50 % ID per gram
- % ID per gram fat (EMT-6 mammary tumors [1]; 30 min): 0.68 ± 0.19 % ID per gram
- % ID per gram fat (EMT-6 mammary tumors [1]; 1 hour): 0.33 ± 0.24 % ID per gram
- % ID per gram heart (EMT-6 mammary tumors [1]; 5 min): 5.86 ± 0.47 % ID per gram
- % ID per gram heart (EMT-6 mammary tumors [1]; 30 min): 0.95 ± 0.17 % ID per gram
- % ID per gram heart (EMT-6 mammary tumors [1]; 1 hour): 0.50 ± 0.11 % ID per gram
- % ID per gram kidney (EMT-6 mammary tumors [1]; 5 min): 20.50 ± 1.86 % ID per gram
- % ID per gram kidney (EMT-6 mammary tumors [1]; 30 min): 4.12 ± 0.51 % ID per gram
- % ID per gram kidney (EMT-6 mammary tumors [1]; 1 hour): 2.26 ± 0.36 % ID per gram
- % ID per gram liver (EMT-6 mammary tumors [1]; 5 min): 12.32 ± 1.73 % ID per gram
- % ID per gram liver (EMT-6 mammary tumors [1]; 30 min): 9.65 ± 2.00 % ID per gram
- % ID per gram liver (EMT-6 mammary tumors [1]; 1 hour): 3.00 ± 0.21 % ID per gram
- % ID per gram lung (EMT-6 mammary tumors [1]; 5 min): 14.02 ± 1.40 % ID per gram
- % ID per gram lung (EMT-6 mammary tumors [1]; 30 min): 2.27 ± 0.42 % ID per gram
- % ID per gram lung (EMT-6 mammary tumors [1]; 1 hour): 1.09 ± 0.26 % ID per gram
- % ID per gram muscle (EMT-6 mammary tumors [1]; 5 min): 4.49 ± 0.45 % ID per gram
- % ID per gram muscle (EMT-6 mammary tumors [1]; 30 min): 0.75 ± 0.13 % ID per gram
- % ID per gram muscle (EMT-6 mammary tumors [1]; 1 hour): 0.49 ± 0.11 % ID per gram
- % ID per gram tumor (EMT-6 mammary tumors [1]; 5 min): 4.22 ± 1.01 % ID per gram
- % ID per gram tumor (EMT-6 mammary tumors [1]; 30 min): 2.35 ± 0.27 % ID per gram
- % ID per gram tumor (EMT-6 mammary tumors [1]; 1 hour): 1.32 ± 0.17 % ID per gram
- in vivo blocking study result [2]: consistent with the labeling of σ2 receptors in vivo
- tumor:background ratios compared with [18F]FLT (EMT-6 mammary tumors [3]): tumor:lung and tumor:fat ratios equal to [^18F]FLT and tumor:blood, tumor:muscle and tumor:heart ratios that are greater than that of [18F]FLT

SMILES: COc1cc2c(cc1OC)CN(CCCCNC(=O)c1cc([125I])cc(OC)c1OC)CC2 [[^125I]6i]
- tissue uptake at 2 h [4, 5]: 2.45 ± 0.25 %ID/g
- tissue uptake at 4 h [4, 5]: 0.63 ± 0.11 %ID/g
- tissue uptake at 2 h [4, 6]: 1.91 ± 0.2 %ID/g
- tissue uptake at 4 h [4, 6]: 0.9 ± 0.21 %ID/g
- tissue uptake at 4 h ([4]; lung, read-out: % ID per gram lung): 0.29 ± 0.05 %ID/g
- ratio Tumor:blood (EMT-6 mammary tumors [1]; 5 min): 1.73 ± 0.46
- ratio Tumor:fat (EMT-6 mammary tumors [1]; 5 min): 1.00 ± 0.20
- ratio Tumor:heart (EMT-6 mammary tumors [1]; 5 min): 0.61 ± 0.07
- ratio Tumor:lung (EMT-6 mammary tumors [1]; 5 min): 0.15 ± 0.02
- ratio Tumor:muscle (EMT-6 mammary tumors [1]; 5 min): 0.98 ± 0.13
- ratio Tumor:blood (EMT-6 mammary tumors [1]; 30 min): 2.07 ± 0.32
- ratio Tumor:fat (EMT-6 mammary tumors [1]; 30 min): 2.62 ± 0.27
- ratio Tumor:heart (EMT-6 mammary tumors [1]; 30 min): 2.32 ± 0.18
- ratio Tumor:lung (EMT-6 mammary tumors [1]; 30 min): 0.82 ± 0.09
- ratio Tumor:muscle (EMT-6 mammary tumors [1]; 30 min): 3.94 ± 0.55
- ratio Tumor:blood (EMT-6 mammary tumors [1]; 1 hour): 2.44 ± 0.53
- ratio Tumor:fat (EMT-6 mammary tumors [1]; 1 hour): 4.85 ± 0.67
- ratio Tumor:heart (EMT-6 mammary tumors [1]; 1 hour): 3.89 ± 0.08
- ratio Tumor:lung (EMT-6 mammary tumors [1]; 1 hour): 1.66 ± 0.17
- ratio Tumor:muscle (EMT-6 mammary tumors [1]; 1 hour): 4.26 ± 0.74
- ratio Tumor:blood (EMT-6 mammary tumors [1]; 2 hour): 2.83 ± 1.62
- ratio Tumor:fat (EMT-6 mammary tumors [1]; 2 hour): 5.86 ± 2.93
- ratio Tumor:heart (EMT-6 mammary tumors [1]; 2 hour): 4.85 ± 2.31
- ratio Tumor:lung (EMT-6 mammary tumors [1]; 2 hour): 1.99 ± 1.04
- ratio Tumor:muscle (EMT-6 mammary tumors [1]; 2 hour): 6.99 ± 4.44
- ratio Tumor:blood (EMT-6 mammary tumors [1]; 4 hour): 3.11 ± 0.85
- ratio Tumor:fat (EMT-6 mammary tumors [1]; 4 hour): 9.59 ± 4.55
- ratio Tumor:heart (EMT-6 mammary tumors [1]; 4 hour): 5.91 ± 1.65
- ratio Tumor:lung (EMT-6 mammary tumors [1]; 4 hour): 2.83 ± 0.19
- ratio Tumor:muscle (EMT-6 mammary tumors [1]; 4 hour): 8.98 ± 3.01
- % ID per gram blood (EMT-6 mammary tumors [1]; 5 min): 2.37 ± 0.26 % ID per gram
- % ID per gram blood (EMT-6 mammary tumors [1]; 30 min): 2.19 ± 0.16 % ID per gram
- % ID per gram blood (EMT-6 mammary tumors [1]; 1 hour): 1.52 ± 0.49 % ID per gram
- % ID per gram blood (EMT-6 mammary tumors [1]; 2 hour): 0.65 ± 0.07 % ID per gram
- % ID per gram blood (EMT-6 mammary tumors [1]; 4 hour): 0.29 ± 0.11 % ID per gram
- % ID per gram brain (EMT-6 mammary tumors [1]; 5 min): 1.53 ± 0.14 % ID per gram
- % ID per gram brain (EMT-6 mammary tumors [1]; 30 min): 0.39 ± 0.03 % ID per gram
- % ID per gram brain (EMT-6 mammary tumors [1]; 1 hour): 0.15 ± 0.03 % ID per gram
- % ID per gram brain (EMT-6 mammary tumors [1]; 2 hour): 0.06 ± 0.01 % ID per gram
- % ID per gram brain (EMT-6 mammary tumors [1]; 4 hour): 0.02 ± 0.01 % ID per gram
- % ID per gram fat (EMT-6 mammary tumors [1]; 5 min): 4.15 ± 0.91 % ID per gram
- % ID per gram fat (EMT-6 mammary tumors [1]; 30 min): 1.73 ± 0.20 % ID per gram
- % ID per gram fat (EMT-6 mammary tumors [1]; 1 hour): 0.74 ± 0.17 % ID per gram
- % ID per gram fat (EMT-6 mammary tumors [1]; 2 hour): 0.33 ± 0.08 % ID per gram
- % ID per gram fat (EMT-6 mammary tumors [1]; 4 hour): 0.10 ± 0.05 % ID per gram
- % ID per gram heart (EMT-6 mammary tumors [1]; 5 min): 6.55 ± 0.54 % ID per gram
- % ID per gram heart (EMT-6 mammary tumors [1]; 30 min): 1.94 ± 0.09 % ID per gram
- % ID per gram heart (EMT-6 mammary tumors [1]; 1 hour): 0.91 ± 0.10 % ID per gram
- % ID per gram heart (EMT-6 mammary tumors [1]; 2 hour): 0.40 ± 0.05 % ID per gram
- % ID per gram heart (EMT-6 mammary tumors [1]; 4 hour): 0.15 ± 0.04 % ID per gram
- % ID per gram kidney (EMT-6 mammary tumors [1]; 5 min): 29.51 ± 2.23 % ID per gram
- % ID per gram kidney (EMT-6 mammary tumors [1]; 30 min): 13.69 ± 0.35 % ID per gram
- % ID per gram kidney (EMT-6 mammary tumors [1]; 1 hour): 5.94 ± 1.22 % ID per gram
- % ID per gram liver (EMT-6 mammary tumors [1]; 5 min): 13.20 ± 2.04 % ID per gram
- % ID per gram liver (EMT-6 mammary tumors [1]; 30 min): 8.77 ± 0.88 % ID per gram
- % ID per gram liver (EMT-6 mammary tumors [1]; 1 hour): 4.24 ± 0.60 % ID per gram
- % ID per gram lung (EMT-6 mammary tumors [1]; 5 min): 27.13 ± 1.61 % ID per gram
- % ID per gram lung (EMT-6 mammary tumors [1]; 30 min): 5.50 ± 0.62 % ID per gram
- % ID per gram lung (EMT-6 mammary tumors [1]; 1 hour): 2.12 ± 0.19 % ID per gram
- % ID per gram lung (EMT-6 mammary tumors [1]; 2 hour): 1.01 ± 0.18 % ID per gram
- % ID per gram muscle (EMT-6 mammary tumors [1]; 5 min): 4.10 ± 0.33 % ID per gram
- % ID per gram muscle (EMT-6 mammary tumors [1]; 30 min): 1.21 ± 0.17 % ID per gram
- % ID per gram muscle (EMT-6 mammary tumors [1]; 1 hour): 0.87 ± 0.22 % ID per gram
- % ID per gram muscle (EMT-6 mammary tumors [1]; 2 hour): 0.31 ± 0.10 % ID per gram
- % ID per gram muscle (EMT-6 mammary tumors [1]; 4 hour): 0.10 ± 0.04 % ID per gram
- % ID per gram tumor (EMT-6 mammary tumors [1]; 5 min): 4.02 ± 0.55 % ID per gram
- % ID per gram tumor (EMT-6 mammary tumors [1]; 30 min): 4.50 ± 0.43 % ID per gram
- % ID per gram tumor (EMT-6 mammary tumors [1]; 1 hour): 3.53 ± 0.42 % ID per gram
- % ID per gram tumor (EMT-6 mammary tumors [1]; 2 hour): 1.88 ± 0.76 % ID per gram
- % ID per gram tumor (EMT-6 mammary tumors [1]; 4 hour): 0.82 ± 0.09 % ID per gram
- in vivo blocking study result [2]: consistent with the labeling of σ2 receptors in vivo
